Reference: publication PMC8621172, “Manipulating Estrogenic/Anti-Estrogenic Activity of Triphenylethylenes towards Development of Novel Anti-Neoplastic SERMs” (International Journal of Molecular Sciences, 2021)
Values joined by “and” are separate entries in the source; they are usually repeats but may differ in a detail not shown here. Identical values can stand only once.

Assays:
human ERα = molecular target: T1, human ERα (Homo sapiens, UniProt P03372); test: Yeast estrogen screen (YES) assay, agonistic activity (β-galactosidase reporter); type: cell-based; conditions: triplicates; for EC50: YES assay; for Estrogenic Activity (relative β-galactosidase activity): compounds at 1 µM, compared to DMSO (set as 1)
T1 construct: host or cells: Saccharomyces cerevisiae
T1 sequence (P03372 1-595): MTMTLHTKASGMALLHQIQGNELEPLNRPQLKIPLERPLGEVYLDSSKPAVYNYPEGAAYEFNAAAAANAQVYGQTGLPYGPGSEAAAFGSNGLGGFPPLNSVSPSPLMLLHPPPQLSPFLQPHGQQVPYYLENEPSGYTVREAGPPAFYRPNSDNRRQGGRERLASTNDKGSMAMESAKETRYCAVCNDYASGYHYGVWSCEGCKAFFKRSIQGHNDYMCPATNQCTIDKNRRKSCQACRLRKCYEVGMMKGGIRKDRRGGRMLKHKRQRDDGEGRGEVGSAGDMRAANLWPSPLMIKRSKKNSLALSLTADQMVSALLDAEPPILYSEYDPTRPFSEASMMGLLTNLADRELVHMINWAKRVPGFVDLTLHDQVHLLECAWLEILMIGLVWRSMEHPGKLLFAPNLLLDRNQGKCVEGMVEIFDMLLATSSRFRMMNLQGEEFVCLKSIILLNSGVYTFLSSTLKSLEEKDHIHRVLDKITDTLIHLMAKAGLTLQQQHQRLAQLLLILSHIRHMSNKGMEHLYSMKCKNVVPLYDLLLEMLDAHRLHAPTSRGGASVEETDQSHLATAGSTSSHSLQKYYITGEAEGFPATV
Experimental: All synthesized compounds were tested for their relative activity in β-galactosidase in a yeast estrogen screen (YES) assay. Compounds were tested for their relative estrogenic/anti-estrogenic activities in comparison to positive and negative controls, respectively. YES assay is a gene reporter assay where the DNA sequence of human ERα is integrated into the yeast genome completed with an expression plasmid carrying estrogen response elements (ERE) in the promoter controlling the expression of the reporter gene lacZ (encoding the enzyme β-galactosidase). In the presence of estrogenic compounds, β-galactosidase is synthesized and secreted into the medium, where it converts the chromogenic substrate chlorophenol red-β-D-galactopyranoside (CRPG) from a yellow to a red product, whose absorbance is measured. […] Therefore, we decided to test the novel compounds in an organ-specific in vitro model using the human Ishikawa endometrial adenocarcinoma cell line.
All synthesized compounds were tested for their relative β-galactosidase activity in a yeast estrogen screen (YES) assay at a concentration of 1 µM using DMSO as control (set as 1).
The yeast estrogen receptor assay was supplied by Dr. J.P. Sumpter (Brunel University, Uxbridge, UK) and was used to determine the relative transactivation activity of the human ERα as formerly described. Briefly, Saccharomyces cerevisiae stably transfected with a human ERα and an estrogen-responsive element fused to the reporter gene lacZ encoding for β-galactosidase were treated with the test substances for about 48 h. The β-galactosidase enzymatic activity was measured in a colorimetric assay using a microplate photometer by hydrolysis of the substrate chlorophenol red β-D-galactopyranoside (Roche Diagnostics, Mannheim, Germany), which leads to the formation of chlorophenol red. This can be measured as an increased absorption at 540 nm. All compounds were diluted in DMSO. […] All compounds were tested in technical quadruplicates and biological triplicates. Statistical analysis was performed by analysis of variance (ANOVA) and Tukey’s post-hoc test with the significance level of p < 0.05.

60 NCI tumor cell lines = test: NCI-60 single-dose growth inhibition screen (SRB); type: cell-based, human; conditions: for inhibition at 10 µM: Homo sapiens, mean over 60 NCI tumor cell lines
Experimental: The anti-proliferative effects of the novel analogs were tested in vitro by the National Cancer Institute (NCI) on a panel of 60 human tumor cell lines at 10 µM. Compounds that elicited mean growth inhibition ≥50% were selected by the NCI for 5-dose testing.
Compounds were submitted to the Developmental Therapeutics Program (DTP) of the National Cancer Institute (NCI). The program uses a panel of 60 human tumor cell lines representing nine tissue types, including leukemia, non-small cell lung cancer (NSCLC), melanoma, colon cancer, ovarian cancer, CNS cancer, renal cancer, prostate cancer, and breast cancer, to screen for potential new anti-cancer agents. […] Primary screening of synthesized compounds was performed by testing a single high dose of 10 µM in the full NCI-60 panel. The percent growth of treated cells relative to the no-drug control and relative to the time zero number of cells was measured, and a mean graph was provided. The percentage inhibition was then calculated by subtracting the values obtained from 100.
All compounds were subjected to the NCI in vitro disease-oriented human cells screening panel assay. The human tumor cell lines of the cancer-screening panel are grown in RPMI 1640 medium containing 5% fetal bovine serum and 2 mM L-glutamine. For a typical screening experiment, cells are inoculated into 96-well microtiter plates in 100 μL at plating densities ranging from 5000 to 40,000 cells/well depending on the doubling time of individual cell lines. After cell inoculation, the microtiter plates are incubated at 37 °C, 5% CO2, 95% air, and 100% relative humidity for 24 h prior to the addition of experimental drugs. After 24 h, two plates of each cell line are fixed in situ with TCA to represent a measurement of the cell population for each cell line at the time of drug addition. Experimental drugs are solubilized in dimethyl sulfoxide at 400-fold the desired final maximum test concentration and stored frozen prior to use. At the time of drug addition, an aliquot of frozen concentrate is thawed and diluted to twice the desired final maximum test concentration with complete medium containing 50 μg/mL gentamicin. Additional four, 10-fold, or ½ log serial dilutions are made to provide a total of five drug concentrations plus control. Aliquots of 100 μL of these different drug dilutions are added to the appropriate microtiter wells already containing 100 μL of medium, resulting in the required final drug concentrations. Following drug addition, the plates are incubated for an additional 48 h at 37 °C, 5% CO2, 95% air, and 100% relative humidity. For adherent cells, the assay is terminated by the addition of cold TCA. Cells are fixed in situ by the gentle addition of 50 μL of cold 50% (w/v) TCA (final concentration, 10% TCA) and incubated for 60 min at 4 °C. The supernatant is discarded, and the plates are washed five times with tap water and air-dried. Sulforhodamine B (SRB) solution (100 μL) at 0.4% (w/v) in 1% acetic acid is added to each well, and plates are incubated for 10 min at room temperature. After staining, unbound dye is removed by washing five times with 1% acetic acid, and the plates are air-dried. Bound stain is subsequently solubilized with a 10 mM trizma base, and the absorbance is read on an automated plate reader at a wavelength of 515 nm. For suspension cells, the methodology is the same except that the assay is terminated by fixing settled cells at the bottom of the wells by gently adding 50 μL of 80% TCA (final concentration, 16% TCA). Compounds are screened at a dose of 10 µM, hits showing mean growth inhibition over 60 cell lines >50% are escalated for 5-dose screening assay.

| SMILES | EC50 (human ERα) [nM] | Estrogenic Activity (relative β-galactosidase activity) (human ERα) | inhibition at 10 µM (60 NCI tumor cell lines) [%] | anti-proliferative activity (in words) (60 NCI tumor cell lines; 10 µM, NCI-60 panel and MCF-7) |
| --- | --- | --- | --- | --- |
| COc1ccc(C(C)=C(c2ccc(Cl)cc2)c2ccc(OCCN3CCCCCC3)cc2)cc1F [Compound 19, E/Z-1-(2-{4-[1-(4-Chlorophenyl)-2-(3-fluoro-4-methoxyphenyl)-propenyl]-phenoxy}-ethyl)-azepane] | 407 ± 86 | 3.22 and 3.22 ± 1.22 | 60.8 | – |
| COc1ccc(C(C)=C(c2ccc(Cl)cc2)c2ccc(OCCN(C)C)cc2)cc1F [Compound 20, E/Z-(2-{4-[1-(4-Chlorophenyl)-2-(3-fluoro-4-methoxyphenyl)-propenyl]-phenoxy}-ethyl)-dimethyl-amine] | – | 2.40 ± 0.64 | 47 | – |
| CCN(CC)CCOc1ccc(C(=C(C)c2ccc(OC)c(F)c2)c2ccc(Cl)cc2)cc1 [Compound 21, E/Z-(2-{4-[1-(4-Chlorophenyl)-2-(3-fluoro-4-methoxyphenyl)-propenyl]-phenoxy}-ethyl)-diethyl-amine] | 735 ± 13 | 2.40 ± 0.77 | 31.2 | – |
| COc1cc(C(C)=C(c2ccc(Cl)cc2)c2ccc(OCCCN(C)C)cc2)ccc1F [Compound 22, E/Z-(3-{4-[1-(4-Chlorophenyl)-2-(4-fluoro-3-methoxyphenyl)-propenyl]-phenoxy}-propyl)-dimethyl-amine] | – | 1.87 ± 0.74 | 18.6 | – |
| COc1cc(C(C)=C(c2ccc(Cl)cc2)c2ccc(OCCN3CCCC3)cc2)ccc1F [Compound 23, E/Z-1-(2-{4-[1-(4-Chlorophenyl)-2-(4-fluoro-3-methoxyphenyl)-propenyl]-phenoxy}-ethyl)-pyrrolidine] | – | 1.41 ± 1.01 | 46.9 | – |
| COc1cc(C(C)=C(c2ccc(Cl)cc2)c2ccc(OCCN3CCCCC3)cc2)ccc1F [Compound 24, E/Z-1-(2-{4-[1-(4-Chlorophenyl)-2-(4-fluoro-3-methoxyphenyl)-propenyl]-phenoxy}-ethyl)-piperidine] | – | 1.19 ± 0.20 | 29.2 | – |
| COc1cc(C(C)=C(c2ccc(Cl)cc2)c2ccc(OCCN3CCOCC3)cc2)ccc1F [Compound 25, E/Z-4-(2-{4-[1-(4-Chlorophenyl)-2-(4-fluoro-3-methoxyphenyl)-propenyl]-phenoxy}-ethyl)-morpholine] | – | 1.31 ± 0.30 | 12.8 | lacked anti-proliferative activity |

More lines, main results first:

| EC50 (human ERα) [nM] | Estrogenic Activity (relative β-galactosidase activity) (human ERα) | SMILES | inhibition at 10 µM (60 NCI tumor cell lines) [%] | anti-proliferative activity (in words) (60 NCI tumor cell lines; 10 µM, NCI-60 panel and MCF-7) |
| --- | --- | --- | --- | --- |
| – | 1.78 ± 0.64 | COc1cc(C(C)=C(c2ccc(Cl)cc2)c2ccc(OCCN3CCCCCC3)cc2)ccc1F [Compound 26, E/Z-1-(2-{4-[1-(4-Chlorophenyl)-2-(4-fluoro-3-methoxyphenyl)-propenyl]-phenoxy}-ethyl)-azepane] | 28.3 | – |
| – | 1.15 ± 0.17 | COc1cc(C(C)=C(c2ccc(Cl)cc2)c2ccc(OCCN(C)C)cc2)ccc1F [Compound 27, E/Z-(2-{4-[1-(4-Chlorophenyl)-2-(4-fluoro-3-methoxyphenyl)-propenyl]-phenoxy}-ethyl)-dimethyl-amine] | 47.2 | – |
| – | 1.37 ± 0.39 | CCN(CC)CCOc1ccc(C(=C(C)c2ccc(F)c(OC)c2)c2ccc(Cl)cc2)cc1 [Compound 28, E/Z-(2-{4-[1-(4-Chlorophenyl)-2-(4-fluoro-3-methoxyphenyl)-propenyl]-phenoxy}-ethyl)-diethyl-amine] | 92.3 | – |
